# Data taken from PubChem BioAssay (NCI).
#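 Briefly, cells in 96-well plates were exposed to five compound concentrations for 48 h, and endpoints were estimated by linear interpolation. Here, GI50 denotes the concentration required for 50% inhibition of growth. At the TGI there is no net growth.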
# Assays:
# Test in all cases: DTP human tumour cell line panel, 48 h
# 786-0 renal = test system: 786-0 renal
# DU-145 prostate = test system: DU-145 prostate
# NCI-H460 lung = test system: NCI-H460 lung
# M14 melanoma = test system: M14 melanoma
# SK-MEL-2 melanoma = test system: SK-MEL-2 melanoma
# SR leukemia = test system: SR leukemia
# ACHN renal = test system: ACHN renal
# TK-10 renal = test system: TK-10 renal
# MDA-MB-231 breast = test system: MDA-MB-231 breast
# UO-31 renal = test system: UO-31 renal
# RXF 393 renal = test system: RXF 393 renal
# HOP-62 NSCLC = test system: HOP-62 NSCLC
# SF-268 CNS = test system: SF-268 CNS
# SW-620 colon = test system: SW-620 colon
# NCI-H226 lung = test system: NCI-H226 lung
# HS 578T breast = test system: HS 578T breast
# NCI-H23 lung = test system: NCI-H23 lung
# PC-3 prostate = test system: PC-3 prostate
# KM12 colon = test system: KM12 colon
# NCI/ADR-RES ovarian = test system: NCI/ADR-RES ovarian
# CAKI-1 renal = test system: CAKI-1 renal
# SK-MEL-5 melanoma = test system: SK-MEL-5 melanoma
# HL-60(TB) leukemia = test system: HL-60(TB) leukemia
# MCF7 breast = test system: MCF7 breast
# SF-295 CNS = test system: SF-295 CNS
# UACC-257 melanoma = test system: UACC-257 melanoma
# MALME-3M melanoma = test system: MALME-3M melanoma
# OVCAR-8 ovarian = test system: OVCAR-8 ovarian
# SNB-19 CNS = test system: SNB-19 CNS
# NCI-H522 lung = test system: NCI-H522 lung
# EKVX NSCLC = test system: EKVX NSCLC
# T-47D breast = test system: T-47D breast
# MDA-MB-435 = test system: MDA-MB-435
# OVCAR-4 ovarian = test system: OVCAR-4 ovarian
# UACC-62 melanoma = test system: UACC-62 melanoma
# HOP-92 NSCLC = test system: HOP-92 NSCLC
# U251 CNS = test system: U251 CNS
# SK-MEL-28 melanoma = test system: SK-MEL-28 melanoma
# OVCAR-5 ovarian = test system: OVCAR-5 ovarian
# A549 NSCLC = test system: A549 NSCLC
# IGROV1 ovarian = test system: IGROV1 ovarian
# OVCAR-3 ovarian = test system: OVCAR-3 ovarian
# HCT-15 colon = test system: HCT-15 colon
# SN12C renal = test system: SN12C renal
# SF-539 CNS = test system: SF-539 CNS
# K-562 leukemia = test system: K-562 leukemia
# HCT-116 colon = test system: HCT-116 colon
# SNB-75 CNS = test system: SNB-75 CNS
# SK-OV-3 ovarian = test system: SK-OV-3 ovarian
# BT-549 breast = test system: BT-549 breast
# LOX IMVI melanoma = test system: LOX IMVI melanoma
# HT29 colon = test system: HT29 colon
# MOLT-4 leukemia = test system: MOLT-4 leukemia
# RPMI-8226 leukemia = test system: RPMI-8226 leukemia
# A498 renal = test system: A498 renal
# HCC-2998 colon = test system: HCC-2998 colon
# CCRF-CEM leukemia = test system: CCRF-CEM leukemia
# COLO 205 colon = test system: COLO 205 colon
smiles,measurement,setting,value
COc1ccc2c(c1)n([O-])c1cc(C#N)ccc1[n+]2=O,TGI,786-0 renal,30.8 µM
same,TGI,DU-145 prostate,16.6 µM
same,TGI,NCI-H460 lung,> 100 µM
same,TGI,M14 melanoma,1.67 µM
same,TGI,SK-MEL-2 melanoma,19.2 µM
same,TGI,SR leukemia,18.9 µM
same,TGI,ACHN renal,12.4 µM
same,TGI,TK-10 renal,10.8 µM
same,TGI,MDA-MB-231 breast,59.5 µM
same,TGI,UO-31 renal,23.1 µM
same,TGI,RXF 393 renal,> 100 µM
same,TGI,HOP-62 NSCLC,15.6 µM
same,TGI,SF-268 CNS,81.3 µM
same,TGI,SW-620 colon,56.3 µM
same,TGI,NCI-H226 lung,21.7 µM
same,TGI,HS 578T breast,18.6 µM
same,TGI,NCI-H23 lung,4.79 µM
same,TGI,PC-3 prostate,21.7 µM
same,TGI,KM12 colon,12.5 µM
same,TGI,NCI/ADR-RES ovarian,62.9 µM
same,TGI,CAKI-1 renal,14.6 µM
same,TGI,SK-MEL-5 melanoma,2.6 µM
same,TGI,HL-60(TB) leukemia,71.6 µM
same,TGI,MCF7 breast,> 100 µM
same,TGI,SF-295 CNS,3.77 µM
same,TGI,UACC-257 melanoma,19.4 µM
same,TGI,MALME-3M melanoma,8.06 µM
same,TGI,OVCAR-8 ovarian,> 100 µM
same,TGI,SNB-19 CNS,> 100 µM
same,TGI,NCI-H522 lung,27.7 µM
same,TGI,EKVX NSCLC,79.1 µM
same,TGI,T-47D breast,48.6 µM
same,TGI,MDA-MB-435,6.12 µM
same,TGI,OVCAR-4 ovarian,91 µM
same,TGI,UACC-62 melanoma,11 µM
same,TGI,HOP-92 NSCLC,28.6 µM
same,TGI,U251 CNS,16.7 µM
same,TGI,SK-MEL-28 melanoma,40.2 µM
same,TGI,OVCAR-5 ovarian,35.9 µM
same,TGI,A549 NSCLC,10.9 µM
same,TGI,IGROV1 ovarian,26.8 µM
same,TGI,OVCAR-3 ovarian,26.1 µM
same,TGI,HCT-15 colon,4.82 µM
same,TGI,SN12C renal,20.6 µM
same,TGI,SF-539 CNS,16.2 µM
same,TGI,K-562 leukemia,97.4 µM
same,TGI,HCT-116 colon,24 µM
same,TGI,SNB-75 CNS,20.3 µM
same,TGI,SK-OV-3 ovarian,43.1 µM
same,TGI,BT-549 breast,51.6 µM
same,TGI,LOX IMVI melanoma,17.6 µM
same,TGI,HT29 colon,10.1 µM
same,TGI,MOLT-4 leukemia,1.38 µM
O=C(C[n+]1cccc2cc(Cl)ccc21)c1ccc2c(c1)CCCC2,GI50,786-0 renal,2.01 µM
same,TGI,786-0 renal,5.25 µM
same,GI50,DU-145 prostate,1.46 µM
same,TGI,DU-145 prostate,3.33 µM
same,GI50,NCI-H460 lung,1.86 µM
same,TGI,NCI-H460 lung,3.68 µM
same,GI50,M14 melanoma,1.48 µM
same,TGI,M14 melanoma,3.2 µM
same,GI50,SK-MEL-2 melanoma,1.68 µM
same,TGI,SK-MEL-2 melanoma,3.41 µM
same,GI50,SR leukemia,0.758 µM
same,TGI,SR leukemia,6.18 µM
same,GI50,ACHN renal,4.91 µM
same,TGI,ACHN renal,18.5 µM
same,GI50,TK-10 renal,2.21 µM
same,TGI,TK-10 renal,4.65 µM
same,GI50,RPMI-8226 leukemia,0.91 µM
same,TGI,RPMI-8226 leukemia,4.09 µM
same,GI50,MDA-MB-231 breast,1.5 µM
same,TGI,MDA-MB-231 breast,3.25 µM
same,GI50,UO-31 renal,5.71 µM
same,TGI,UO-31 renal,20.4 µM
same,GI50,RXF 393 renal,1.69 µM
same,TGI,RXF 393 renal,3.81 µM
same,GI50,A498 renal,3.56 µM
same,TGI,A498 renal,13.3 µM
same,GI50,HOP-62 NSCLC,1.65 µM
same,TGI,HOP-62 NSCLC,3.85 µM
same,GI50,SF-268 CNS,1.44 µM
same,TGI,SF-268 CNS,3.29 µM
same,GI50,HCC-2998 colon,1.6 µM
same,TGI,HCC-2998 colon,3.28 µM
same,GI50,SW-620 colon,2.03 µM
same,TGI,SW-620 colon,4.97 µM
same,GI50,NCI-H226 lung,1.48 µM
same,TGI,NCI-H226 lung,3.48 µM
same,GI50,HS 578T breast,2.03 µM
same,TGI,HS 578T breast,5.43 µM
same,GI50,NCI-H23 lung,1.14 µM
same,TGI,NCI-H23 lung,4.44 µM
same,GI50,PC-3 prostate,0.933 µM
same,TGI,PC-3 prostate,3.61 µM
same,GI50,KM12 colon,1.46 µM
same,TGI,KM12 colon,3.36 µM
same,GI50,NCI/ADR-RES ovarian,19.9 µM
same,TGI,NCI/ADR-RES ovarian,67.3 µM
same,GI50,SK-MEL-5 melanoma,1.26 µM
same,TGI,SK-MEL-5 melanoma,2.55 µM
same,GI50,HL-60(TB) leukemia,0.882 µM
same,TGI,HL-60(TB) leukemia,3.95 µM
same,GI50,SF-295 CNS,1.77 µM
same,TGI,SF-295 CNS,4.22 µM
same,GI50,UACC-257 melanoma,1.5 µM
same,TGI,UACC-257 melanoma,3.58 µM
same,GI50,MALME-3M melanoma,1.2 µM
same,TGI,MALME-3M melanoma,2.63 µM
same,GI50,OVCAR-8 ovarian,2.98 µM
same,TGI,OVCAR-8 ovarian,11.2 µM
same,GI50,SNB-19 CNS,1.12 µM
same,TGI,SNB-19 CNS,2.65 µM
same,GI50,NCI-H522 lung,1.51 µM
same,TGI,NCI-H522 lung,4.33 µM
same,GI50,CCRF-CEM leukemia,1.59 µM
same,TGI,CCRF-CEM leukemia,8.74 µM
same,GI50,EKVX NSCLC,2.46 µM
same,TGI,EKVX NSCLC,11.3 µM
same,GI50,T-47D breast,1.09 µM
same,TGI,T-47D breast,2.71 µM
same,GI50,MDA-MB-435,1.61 µM
same,TGI,MDA-MB-435,3.38 µM
same,GI50,OVCAR-4 ovarian,0.982 µM
same,TGI,OVCAR-4 ovarian,2.99 µM
same,GI50,UACC-62 melanoma,1.54 µM
same,TGI,UACC-62 melanoma,3.49 µM
same,GI50,HOP-92 NSCLC,1.58 µM
same,TGI,HOP-92 NSCLC,3.22 µM
same,GI50,U251 CNS,0.595 µM
same,TGI,U251 CNS,1.86 µM
same,GI50,SK-MEL-28 melanoma,1.62 µM
same,TGI,SK-MEL-28 melanoma,3.19 µM
same,GI50,OVCAR-5 ovarian,1.84 µM
same,TGI,OVCAR-5 ovarian,4.54 µM
same,GI50,A549 NSCLC,3.7 µM
same,TGI,A549 NSCLC,13.5 µM
same,GI50,IGROV1 ovarian,1.52 µM
same,TGI,IGROV1 ovarian,4.08 µM
same,GI50,OVCAR-3 ovarian,0.875 µM
same,TGI,OVCAR-3 ovarian,2.26 µM
same,GI50,COLO 205 colon,1.5 µM
same,TGI,COLO 205 colon,3.01 µM
same,GI50,HCT-15 colon,11.8 µM
same,TGI,HCT-15 colon,31.7 µM
same,GI50,SN12C renal,1.27 µM
same,TGI,SN12C renal,3.04 µM
same,GI50,SF-539 CNS,1.4 µM
same,TGI,SF-539 CNS,2.85 µM
same,GI50,K-562 leukemia,1.32 µM
same,TGI,K-562 leukemia,10.3 µM
same,GI50,SNB-75 CNS,1.35 µM
same,TGI,SNB-75 CNS,3.2 µM
same,GI50,SK-OV-3 ovarian,1.72 µM
same,TGI,SK-OV-3 ovarian,6.94 µM
same,GI50,BT-549 breast,1.11 µM
same,TGI,BT-549 breast,2.97 µM
same,GI50,LOX IMVI melanoma,0.831 µM
same,TGI,LOX IMVI melanoma,2.24 µM
same,GI50,HT29 colon,1.66 µM
same,TGI,HT29 colon,3.44 µM
same,GI50,MOLT-4 leukemia,1.41 µM
same,TGI,MOLT-4 leukemia,4.5 µM
